Assay results: patent US6352958B1, “Cycloimido-substituted benzofused heterocyclic herbicides” (FMC Corporation, priority 1997, dated 2002)

Assays:
Type in all cases: in vivo
[1] = tested on: wheat (Triticum aestivum var. Lew); assay: Preemergence herbicidal activity, wheat; conditions: Rate of Application 0.3 Kg/Ha, examined after 12-17 days
[2] = tested on: field corn (Zea mays var. Pioneer 3732); assay: Postemergence herbicidal activity, corn; conditions: rate of application 0.3 Kg/Ha, rated after 12-17 days
[3] = tested on: common chickweed (Stellaria media); assay: Preemergence herbicidal activity, chickweed; conditions: Rate of Application 0.3 Kg/Ha, examined after 12-17 days
[4] = tested on: velvetleaf (Abutilon theophrasti); assay: Preemergence herbicidal activity, velvetleaf; conditions: Rate of Application 0.3 Kg/Ha, examined after 12-17 days
[5] = tested on: common cocklebur (Xanthium strumarium L.); assay: Postemergence herbicidal activity, cocklebur; conditions: rate of application 0.3 Kg/Ha, rated after 12-17 days
[6] = tested on: green foxtail (Setaria viridis); assay: Postemergence herbicidal activity, green foxtail; conditions: rate of application 0.3 Kg/Ha, rated after 12-17 days
[7] = tested on: blackgrass (Aloepecurus myosuroides); assay: Postemergence herbicidal activity, blackgrass; conditions: rate of application 0.3 Kg/Ha, rated after 12-17 days
[8] = tested on: morningglory (Ipomea lacunosa or Ipomea hederacea); assay: Preemergence herbicidal activity, morningglory; conditions: Rate of Application 0.3 Kg/Ha, examined after 12-17 days
[9] = tested on: common chickweed (Stellaria media); assay: Postemergence herbicidal activity, chickweed; conditions: rate of application 0.3 Kg/Ha, rated after 12-17 days
[10] = tested on: blackgrass (Aloepecurus myosuroides); assay: Preemergence herbicidal activity, blackgrass; conditions: Rate of Application 0.3 Kg/Ha, examined after 12-17 days
[11] = tested on: field corn (Zea mays var. Pioneer 3732); assay: Preemergence herbicidal activity, corn; conditions: Rate of Application 0.3 Kg/Ha, examined after 12-17 days
[12] = tested on: wheat (Triticum aestivum var. Lew); assay: Postemergence herbicidal activity, wheat; conditions: rate of application 0.3 Kg/Ha, rated after 12-17 days
[13] = tested on: green foxtail (Setaria viridis); assay: Preemergence herbicidal activity, green foxtail; conditions: Rate of Application 0.3 Kg/Ha, examined after 12-17 days
[14] = tested on: soybean (Glycine max var. Winchester); assay: Preemergence herbicidal activity, soybean; conditions: Rate of Application 0.3 Kg/Ha, examined after 12-17 days
[15] = tested on: Johnsongrass (Sorghum halepense); assay: Preemergence herbicidal activity, johnsongrass; conditions: Rate of Application 0.3 Kg/Ha, examined after 12-17 days
[16] = tested on: soybean (Glycine max var. Winchester); assay: Postemergence herbicidal activity, soybean; conditions: rate of application 0.3 Kg/Ha, rated after 12-17 days
[17] = tested on: morningglory (Ipomea lacunosa or Ipomea hederacea); assay: Postemergence herbicidal activity, morningglory; conditions: rate of application 0.3 Kg/Ha, rated after 12-17 days
[18] = tested on: velvetleaf (Abutilon theophrasti); assay: Postemergence herbicidal activity, velvetleaf; conditions: rate of application 0.3 Kg/Ha, rated after 12-17 days
[19] = tested on: Johnsongrass (Sorghum halepense); assay: Postemergence herbicidal activity, johnsongrass; conditions: rate of application 0.3 Kg/Ha, rated after 12-17 days
[20] = tested on: common cocklebur (Xanthium strumarium L.); assay: Preemergence herbicidal activity, cocklebur; conditions: Rate of Application 0.3 Kg/Ha, examined after 12-17 days

Row | Structure (SMILES) | PREEMERGENCE HERBICIDAL ACTIVITY (% CONTROL) WHT [1] [%] | Postemergence herbicidal activity (% control) CRN [2] [%] | PREEMERGENCE HERBICIDAL ACTIVITY (% CONTROL) STEME [3] [%] | PREEMERGENCE HERBICIDAL ACTIVITY (% CONTROL) ABUTH [4] [%] | Postemergence herbicidal activity (% control) XANPE [5] [%] | Postemergence herbicidal activity (% control) SETVI [6] [%] | Postemergence herbicidal activity (% control) ALOMY [7] [%] | PREEMERGENCE HERBICIDAL ACTIVITY (% CONTROL) IPOSS [8] [%] | Postemergence herbicidal activity (% control) STEME [9] [%] | PREEMERGENCE HERBICIDAL ACTIVITY (% CONTROL) ALOMY [10] [%] | PREEMERGENCE HERBICIDAL ACTIVITY (% CONTROL) CRN [11] [%] | Postemergence herbicidal activity (% control) WHT [12] [%] | PREEMERGENCE HERBICIDAL ACTIVITY (% CONTROL) SETVI [13] [%] | PREEMERGENCE HERBICIDAL ACTIVITY (% CONTROL) SOY [14] [%] | PREEMERGENCE HERBICIDAL ACTIVITY (% CONTROL) SORHA [15] [%] | Postemergence herbicidal activity (% control) SOY [16] [%] | Postemergence herbicidal activity (% control) IPOSS [17] [%] | Postemergence herbicidal activity (% control) ABUTH [18] [%] | Postemergence herbicidal activity (% control) SORHA [19] [%] | PREEMERGENCE HERBICIDAL ACTIVITY (% CONTROL) XANPE [20] [%]
1 | Cc1nc2c(-n3c(=O)cc(C(F)(F)F)n(C)c3=O)c(F)cc(Cl)c2o1 [Compound 1] | 85 | 80 | 100 | 100 | 100 | 80 | 70 | 100 | 90 | 90 | 90 | 65 | 100 | 100 | 95 | 95 | 100 | 100 | 80 | 100
2 | Cc1nc2c(-n3c(=O)cc(C(F)(F)F)n(C)c3=O)c(F)cc(Br)c2o1 [Compound 16] | 70 | 80 | 100 | 100 | 95 | 80 | 70 | 100 | 70 | 80 | 90 | 60 | 100 | 100 | 95 | 95 | 100 | 100 | 80 | 90
3 | CCc1nc2c(-n3c(=O)cc(C(F)(F)F)n(C)c3=O)c(F)cc(Cl)c2o1 [Compound 25] | 100 | 90 | 100 | 100 | 100 | 100 | 80 | 100 | 100 | 90 | 100 | 80 | 100 | 100 | 100 | 100 | 100 | 100 | 90 | 95
4 | CCCc1nc2c(-n3c(=O)cc(C(F)(F)F)n(C)c3=O)c(F)cc(Cl)c2o1 [Compound 26] | 90 | 80 | 100 | 100 | 100 | 100 | 80 | 100 | 80 | 95 | 90 | 60 | 100 | 100 | 100 | 96 | 100 | 100 | 80 | 100
5 | CC(C)C(=O)OC(C)c1cc2c(Cl)cc(F)c(-n3c(=O)cc(C(F)(F)F)n(C)c3=O)c2o1 (centres unmarked) [Compound 247] | 90 | 100 | 95 | 100 | 100 | 100 | 100 | 100 | 100 | 85 | 90 | 80 | 100 | 100 | 100 | 95 | 100 | 100 |  | 100
6 | CNC(=O)OC(C)c1cc2c(Cl)cc(F)c(-n3c(=O)cc(C(F)(F)F)n(C)c3=O)c2o1 (centres unmarked) [Compound 249] | 80 | 100 | 100 | 100 | 100 | 100 | 100 | 100 | 100 | 80 | 95 | 80 | 10 | 100 | 100 | 95 | 100 | 100 |  | 90
7 | Cn1c(C(F)(F)F)cc(=O)n(-c2ccc(Cl)c3cc(-c4ccccc4)oc23)c1=O [Compound 264] | 0 | 50 | 20 | 20 | 30 |  | 0 | 0 | 0 | 0 | 10 | 20 | 10 | 0 | 10 | 50 | 40 | 40 | 20 | 30
